In brackets after ≈: the same amount, converted by molar mass. Like-named read-outs stand apart in the source and are kept apart here.
Experiments:
[1] = test system: Shigella dysenteriae JS 11910; test: Minimum inhibitory concentration, serial dilution method on nutrient agar; assay type: cell-based; settings: JS11910, 18 h, read-out: Minimum Inhibitory Concentrations
[2] = test system: Escherichia coli LA290 R55; test: as above; assay type: cell-based; settings: LA290R55, 18 h, read-out: Minimum Inhibitory Concentrations
[3] = test system: Escherichia coli K-12 R5; test: as above; assay type: cell-based; settings: K12R5, 18 h, read-out: Minimum Inhibitory Concentrations
[4] = test system: Bacillus subtilis NRRL B-558; test: as above; assay type: cell-based; settings: NRRLB558, 37° C., 18 hours, read-out: Minimum Inhibitory Concentrations
[5] = test system: Staphylococcus aureus FDA 209P; test: as above; assay type: cell-based; settings: FDA209P, 37° C., 18 hours, read-out: Minimum Inhibitory Concentrations
[6] = test system: Escherichia coli LA290 R56; test: as above; assay type: cell-based; settings: LA290R56, 18 h, read-out: Minimum Inhibitory Concentrations
[7] = test system: Pseudomonas aeruginosa A3; test: as above; assay type: cell-based; settings: 37° C., 18 hours, read-out: Minimum Inhibitory Concentrations
Protocol: (§1) The minimum inhibitory concentrations (mcg./ml.) of 1N-(DL-isoseryl)-6'N-methyl-3',4'-dideoxykanamycin B (abbreviated as DL-IS-MDKB); 1N-(L-isoseryl)-6'N-methyl-3',4'-dideoxykanamycin B (abbreviated as L-IS-MDKB); 1N-(L-4-amino-[…])-6'N-methyl-3',4'-dideoxykanamycin B (abbreviated as AHB-MDKB); and 1N-(L-5-amino-2-hydroxyvaleryl)-6'N-methyl-3',4'-dideoxykanamycin B (abbreviated as AHV-MDBK) against various organisms were determined according to serial dilution method using nutrient agar medium at 37° C., the readings being made after 18 hours incubation. For the comparison purpose, the minimum inhibitory concentrations (mcg./ml.) of 1 N-(L-4-amino-2-hydroxybutyryl)-kanamycin A (abbreviated as AHB-KMA) and 1N-([…])-kanamycin B (abbreviated as AHB-KMB) which are known from U.S. Pat. No. 3,781,268 were also determined by the same manner as stated above.

[8] = test system: Shigella sonnei JS 11746; test: as above; assay type: cell-based; settings: JS11746, 37° C., 18 hours, read-out: Minimum Inhibitory Concentrations
Protocol: as §1

[9] = test system: Klebsiella pneumoniae 22 No. 3038; test: as above; assay type: cell-based; settings: 37° C., 18 hours, read-out: Minimum Inhibitory Concentrations
Protocol: as §1

[10] = test system: Shigella flexneri 4b JS 11811; test: as above; assay type: cell-based; settings: 4BJS11811, 37° C., 18 hours, read-out: Minimum Inhibitory Concentrations
Protocol: as §1

[11] = test system: Escherichia coli K-12 ML 1630; test: as above; assay type: cell-based; settings: K12ML1630, 37° C., 18 hours, read-out: Minimum Inhibitory Concentrations
Protocol: as §1

[12] = test system: Escherichia coli K-12 ML 1410; test: as above; assay type: cell-based; settings: read-out: Minimum Inhibitory Concentrations
[13] = test system: Bacillus anthracis; test: microbe, parasite or virus in culture; assay type: cell-based; settings: 18 h, read-out: Minimum Inhibitory Concentrations
[14] = test system: Escherichia coli LA290 R64; test: Minimum inhibitory concentration, serial dilution method on nutrient agar; assay type: cell-based; settings: LA290R64, 18 h, read-out: Minimum Inhibitory Concentrations
[15] = test system: Escherichia coli W677; test: as above; assay type: cell-based; settings: Escherichia coli W677; 37° C., 18 hours; read-out: Minimum Inhibitory Concentrations
[16] = test system: Staphylococcus aureus Terajima; test: as above; assay type: cell-based; settings: 37° C., 18 hours, read-out: Minimum Inhibitory Concentrations
[17] = test system: Bacillus subtilis PCI 219; test: as above; assay type: cell-based; settings: PCI219, 37° C., 18 hours, read-out: Minimum Inhibitory Concentrations
[18] = test system: Escherichia coli NIHJ; test: as above; assay type: cell-based; settings: read-out: Minimum Inhibitory Concentrations
[19] = test system: Klebsiella pneumoniae PCT 602; test: as above; assay type: cell-based; settings: PCT602; Klebsiella pneumoniae PCT 602; 37° C., 18 hours; read-out: Minimum Inhibitory Concentrations
[20] = test system: Escherichia coli K-12; test: as above; assay type: cell-based; settings: K12; Escherichia coli K-12; 37° C., 18 hours; read-out: Minimum Inhibitory Concentrations
[21] = test system: Pseudomonas aeruginosa GN315; test: as above; assay type: cell-based; settings: Pseudomonas aeruginosa GN315; 37° C., 18 hours; read-out: Minimum Inhibitory Concentrations
[22] = test system: Staphylococcus aureus; test: as above; assay type: cell-based; settings: 37° C., 18 hours, read-out: Minimum Inhibitory Concentrations
[23] = test system: Salmonella enteritidis 1891; test: as above; assay type: cell-based; settings: Salmonella enterica; Salmonella enteritidis 1891; 37° C., 18 hours; read-out: Minimum Inhibitory Concentrations
[24] = test system: Escherichia coli K-12 ML 1410 R81; test: as above; assay type: cell-based; settings: 18 h, read-out: Minimum Inhibitory Concentrations
[25] = test system: Pseudomonas aeruginosa 99; test: as above; assay type: cell-based; settings: 37° C., 18 hours, read-out: Minimum Inhibitory Concentrations
[26] = test system: Proteus vulgaris OX 19; test: as above; assay type: cell-based; settings: OX19; Proteus vulgaris OX 19; 37° C., 18 hours; read-out: Minimum Inhibitory Concentrations
[27] = test system: Pseudomonas aeruginosa TI-13; test: as above; assay type: cell-based; settings: read-out: Minimum Inhibitory Concentrations
[28] = test system: Escherichia coli JR66/W677; test: as above; assay type: cell-based; settings: read-out: Minimum Inhibitory Concentrations
[29] = test system: Mycobacterium smegmatis ATCC 607; test: as above; assay type: cell-based; settings: Mycolicibacterium smegmatis, ATCC607, 37° C., 18 hours, read-out: Minimum Inhibitory Concentrations
[30] = test system: Sarcina lutea PCI 1001; test: as above; assay type: cell-based; settings: Micrococcus luteus, read-out: Minimum Inhibitory Concentrations
[31] = test system: Bacillus cereus ATCC 10702; test: as above; assay type: cell-based; settings: read-out: Minimum Inhibitory Concentrations
[32] = test system: Pseudomonas aeruginosa No. 12; test: as above; assay type: cell-based; settings: Pseudomonas aeruginosa No. 12; 37° C., 18 hours; read-out: Minimum Inhibitory Concentrations
[33] = test system: Salmonella typhosa T-63; test: as above; assay type: cell-based; settings: Salmonella enterica, 18 h, read-out: Minimum Inhibitory Concentrations
[34] = test system: Corynebacterium bovis 1810; test: as above; assay type: cell-based; settings: Corynebacterium bovis 1810; 37° C., 18 hours; read-out: Minimum Inhibitory Concentrations
[35] = test system: Escherichia coli K-12 ML 1629; test: as above; assay type: cell-based; settings: read-out: Minimum Inhibitory Concentrations
[36] = test system: kanamycin-resistant bacteria; settings: prior art statement; cited from earlier work

## CNC[C@@H]1CC[C@@H](N)[C@@H](O[C@H]2[C@H](O)[C@@H](O[C@H]3O[C@H](CO)[C@@H](O)[C@H](N)[C@H]3O)[C@H](NC(=O)[C@@H](O)CN)C[C@@H]2N)O1 [L-IS-MDKB, 1N-(L-isoseryl)-6'N-methyl-3',4'-dideoxykanamycin B]
[1]
  MIC: 3.13 mg/L (≈ 5.66 µM)
[2]
  MIC: 1.56 mg/L (≈ 2.82 µM)
[3]
  MIC: 1.56 mg/L (≈ 2.82 µM)
[4]
  MIC: < 0.2 mg/L
[5]
  MIC: < 0.2 mg/L
[6]
  MIC: 0.78 mg/L (≈ 1.41 µM)
[7]
  MIC: 3.13 mg/L (≈ 5.66 µM)
[8]
  MIC: 3.13 mg/L (≈ 5.66 µM)
[9]
  MIC: 1.56 mg/L (≈ 2.82 µM)
[10]
  MIC: 1.56 mg/L (≈ 2.82 µM)
[11]
  MIC: 1.56 mg/L (≈ 2.82 µM)
[12]; Escherichia coli, K12ML1410, 18 h
  MIC: 1.56 mg/L (≈ 2.82 µM)
[13]
  MIC: < 0.2 mg/L
[14]
  MIC: 0.39 mg/L (≈ 0.706 µM)
[15]
  MIC: 0.78 mg/L (≈ 1.41 µM)
[16]
  MIC: < 0.2 mg/L
[17]
  MIC: < 0.2 mg/L
[18]; Escherichia coli, 18 h
  MIC: 1.56 mg/L (≈ 2.82 µM)
[19]
  MIC: 0.78 mg/L (≈ 1.41 µM)
[20]
  MIC: 0.78 mg/L (≈ 1.41 µM)
[21]
  MIC: 25 mg/L (≈ 45.2 µM)
[22]
  MIC: < 0.2 mg/L
[23]
  MIC: 0.78 mg/L (≈ 1.41 µM)
[24]
  MIC: 1.56 mg/L (≈ 2.82 µM)
[25]
  MIC: 25 mg/L (≈ 45.2 µM)
[26]
  MIC: 0.78 mg/L (≈ 1.41 µM)
[27]; Pseudomonas aeruginosa, TI13, 18 h
  MIC: 6.25 mg/L (≈ 11.3 µM)
[28]; Escherichia coli, JR66/W677, 18 h
  MIC: 1.56 mg/L (≈ 2.82 µM)
[29]
  MIC: 0.39 mg/L (≈ 0.706 µM)
[30]; PCI1001, 18 h
  MIC: 3.13 mg/L (≈ 5.66 µM)
[31]; Bacillus cereus, ATCC10702, 18 h
  MIC: 1.56 mg/L (≈ 2.82 µM)
[32]
  MIC: 25 mg/L (≈ 45.2 µM)
[33]
  MIC: 0.39 mg/L (≈ 0.706 µM)
[34]
  MIC: 0.78 mg/L (≈ 1.41 µM)
[35]; Escherichia coli, K12ML1629, 18 h
  MIC: 1.56 mg/L (≈ 2.82 µM)

## CNC[C@@H]1CC[C@@H](N)[C@@H](O[C@H]2[C@H](O)[C@@H](O[C@H]3O[C@H](CO)[C@@H](O)[C@H](N)[C@H]3O)[C@H](NC(=O)[C@@H](O)CCCN)C[C@@H]2N)O1 [AHV-MDKB, 1N-(L-5-amino-2-hydroxyvaleryl)-6'N-methyl-3',4'-dideoxykanamycin B]
[1]
  MIC: 3.13 mg/L (≈ 5.39 µM)
[2]
  MIC: 0.78 mg/L (≈ 1.34 µM)
[3]
  MIC: 1.56 mg/L (≈ 2.69 µM)
[4]
  MIC: < 0.2 mg/L
[5]
  MIC: 0.39 mg/L (≈ 0.672 µM)
[6]
  MIC: 0.39 mg/L (≈ 0.672 µM)
[7]
  MIC: 3.13 mg/L (≈ 5.39 µM)
[8]
  MIC: 3.13 mg/L (≈ 5.39 µM)
[9]
  MIC: 3.13 mg/L (≈ 5.39 µM)
[10]
  MIC: 3.13 mg/L (≈ 5.39 µM)
[11]
  MIC: 1.56 mg/L (≈ 2.69 µM)
[12]; K12ML1410, Escherichia coli K-12 ML 1410, 37° C., 18 hours
  MIC: 1.56 mg/L (≈ 2.69 µM)
[13]
  MIC: < 0.2 mg/L
[14]
  MIC: 0.39 mg/L (≈ 0.672 µM)
[15]
  MIC: 0.78 mg/L (≈ 1.34 µM)
[16]
  MIC: < 0.2 mg/L
[17]
  MIC: < 0.2 mg/L
[18]; Escherichia coli NIHJ, 37° C., 18 hours
  MIC: 0.78 mg/L (≈ 1.34 µM)
[19]
  MIC: 0.78 mg/L (≈ 1.34 µM)
[20]
  MIC: 0.78 mg/L (≈ 1.34 µM)
[21]
  MIC: 12.5 mg/L (≈ 21.5 µM)
[22]
  MIC: < 0.2 mg/L
[23]
  MIC: 0.78 mg/L (≈ 1.34 µM)
[24]
  MIC: 1.56 mg/L (≈ 2.69 µM)
[25]
  MIC: 25 mg/L (≈ 43.1 µM)
[26]
  MIC: 0.78 mg/L (≈ 1.34 µM)
[27]; TI13, Pseudomonas aeruginosa TI-13, 37° C., 18 hours
  MIC: 6.25 mg/L (≈ 10.8 µM)
[28]; Escherichia coli JR66/W677, 37° C., 18 hours
  MIC: 1.56 mg/L (≈ 2.69 µM)
[29]
  MIC: 0.78 mg/L (≈ 1.34 µM)
[30]; PCI1001, Sarcina lutea PCI 1001, 37° C., 18 hours
  MIC: 12.5 mg/L (≈ 21.5 µM)
[31]; ATCC10702, Bacillus cereus ATCC 10702, 37° C., 18 hours
  MIC: 1.56 mg/L (≈ 2.69 µM)
[32]
  MIC: 25 mg/L (≈ 43.1 µM)
[33]
  MIC: 0.78 mg/L (≈ 1.34 µM)
[34]
  MIC: 6.25 mg/L (≈ 10.8 µM)
[35]; K12ML1629, Escherichia coli K-12 ML 1629, 37° C., 18 hours
  MIC: 0.78 mg/L (≈ 1.34 µM)

## CNC[C@@H]1CC[C@@H](N)[C@@H](O[C@H]2[C@H](O)[C@@H](O[C@H]3O[C@H](CO)[C@@H](O)[C@H](N)[C@H]3O)[C@H](N)C[C@@H]2N)O1 [6'N-methyl-3',4'-dideoxykanamycin B, 6'N-Methyl-3',4'-dideoxykanamycin B]
[36]
  activity against kanamycin-resistant bacteria: active against a large number of kanamycin-resistant bacteria

— patent US4147861A, “1N-(α-Hydroxy-ω-aminoalkanoyl)- 6'N-methyl-3',4'-dideoxykanamycin B and the production thereof” (Zaidan Hojin Biseibutsu Kagaku Kenkyu Kai, priority 1977, dated 1979)
